From PMC12040169 (PLOS Biology, 2025) come the findings set out here.

This series in a line: in vitro. Conditions: human, hela cells, % viability.
Take `COc1ccc(OC)c(S(=O)(=O)N2CC[C@H]3CC(=O)N(CCN(C)C)CC[C@H]3C2)c1` [CBK288788]: the viability at 28.5 h, 10 µM was 104%.

Regarding `C=CCNC(=O)N1CC[C@H]2CC(=O)N(Cc3ccc(OC)cc3)CC[C@H]2C1` [CBK288790], the viability at 28.5 h, 10 µM is 86.9%.

As to `C=CCNC(=O)N1CC[C@H]2CC(=O)N(Cc3cccnc3)CC[C@H]2C1` [CBK288791], the viability at 28.5 h, 10 µM was 113%.

For `CCNC(=O)N1CC[C@H]2CC(=O)N(Cc3cccnc3)CC[C@H]2C1` [CBK288792], the viability at 28.5 h, 10 µM stood at 85.6%.

In the case of `O=C1C[C@@H]2CCN(C(=O)NC3CCCCC3)C[C@@H]2CCN1CCN1CCNC1=O` [CBK288796], the viability at 28.5 h, 10 µM amounted to 96.4%.

For `COc1ccc(NC(=O)N2CC[C@H]3CC(=O)N(CCN4CCNC4=O)CC[C@H]3C2)cc1` [CBK288797], the viability at 28.5 h, 10 µM came to 86.8%.

As for `CC(C)(C)c1cc(C[C@H]2CNCC[C@H]2CC(=O)N2CCN(c3ccc(F)cc3)CC2)no1` [CBK288800], the viability at 28.5 h, 10 µM was 94.8%.

For `Cc1nn(CCC#N)c(C)c1[C@@H]1C=C[C@@H](NC(=O)Nc2ccc(Cl)cc2)C1` [CBK288803], the viability at 28.5 h, 10 µM worked out at 95.8%.

As for `COc1ccc(NC(=O)N[C@@H]2C=C[C@@H](c3c(C)nn(CCC#N)c3C)C2)cc1` [CBK288804], the viability at 28.5 h, 10 µM is 94.2%.

For `C=CCNC(=O)N[C@H]1[C@H](O)[C@@H](N2CCC(C(=O)OC)CC2)[C@@H]2OC[C@H]1O2` [CBK288807], the viability at 28.5 h, 10 µM came out at 82.1%.

With `CC(=O)N1CCN([C@H]2[C@@H]3OC[C@@H](O3)[C@@H](NCC3CCCCC3)[C@@H]2O)CC1` [CBK288809], the viability at 28.5 h, 10 µM turned out to be 90.6%.

On to `O[C@H]1[C@H](NCc2ccco2)[C@H]2CO[C@H](O2)[C@@H]1N1CCC(Cc2ccccc2)CC1` [CBK288815], for which the viability at 28.5 h, 10 µM was 99.1%.

On to `C=CCNC(=O)N[C@H]1[C@H](O)[C@@H](N(CC)CC)[C@@H]2OC[C@H]1O2` [CBK288817], for which the viability at 28.5 h, 10 µM is 91.1%.

Consider `C=CCNC(=O)N[C@H]1[C@H](O)[C@@H](N2CCN(c3ccccc3OC)CC2)[C@@H]2OC[C@H]1O2` [CBK288818], for which the viability at 28.5 h, 10 µM was determined as 89.7%.

For `O[C@H]1[C@H](NCC2CC2)[C@H]2CO[C@H](O2)[C@@H]1N1CCOCC1` [CBK288819], the viability at 28.5 h, 10 µM worked out at 86.4%.

Regarding `COc1cccc(NC(=O)N[C@H]2[C@H](O)[C@@H](N3CCOCC3)[C@@H]3OC[C@H]2O3)c1` [CBK288821], the viability at 28.5 h, 10 µM came out at 109%.

With `O[C@H]1[C@H](NCc2ccco2)[C@H]2CO[C@H](O2)[C@@H]1N1CCCCC1` [CBK288825], the viability at 28.5 h, 10 µM is 106%.

For the compound `Cn1c(CN2C[C@H](O)C[C@H]2c2nc(-c3ccccc3)no2)nc2ccccc21` [CBK288834], the viability at 28.5 h, 10 µM is 78.7%.

With `O[C@@H]1C[C@@H](c2nc(-c3ccncc3)no2)N(Cc2ccc(F)cc2)C1` [CBK288838], the viability at 28.5 h, 10 µM is 94.3%.

For the compound `O=[N+]([O-])c1ccccc1CN1C[C@H](O)C[C@H]1c1nc(-c2ccncc2)no1` [CBK288839], the viability at 28.5 h, 10 µM turned out to be 91.2%.

For `O[C@@H]1C[C@@H](c2nc(-c3cccnc3)no2)N(Cc2cccs2)C1` [CBK288840], the viability at 28.5 h, 10 µM turned out to be 111%.

Consider `N#Cc1cccc(CN2C[C@H](O)C[C@H]2c2nc(Cc3ccccc3)no2)c1` [CBK288842], for which the viability at 28.5 h, 10 µM amounted to 87.5%.

As for `COc1ccc(-c2noc([C@@H]3C[C@@H](O)CN3Cc3cccc(C#N)c3)n2)cc1` [CBK288843], the viability at 28.5 h, 10 µM was 92.4%.

Consider `CC(=O)N1CCC(N2C[C@H](O)C[C@H]2c2nc(C3CC3)no2)CC1` [CBK288845], for which the viability at 28.5 h, 10 µM turned out to be 93.6%.

On to `O=[N+]([O-])c1cccc(-c2noc([C@@H]3C[C@@H](O)CN3C3CCOCC3)n2)c1` [CBK288847], for which the viability at 28.5 h, 10 µM was 101%.

With `O[C@@H]1C[C@@H](c2nc(-c3ccc(F)cc3)no2)N(Cc2ncc[nH]2)C1` [CBK288849], the viability at 28.5 h, 10 µM was 121%.

Turning to `Cc1ccc(-c2noc([C@@H]3C[C@H](NC(=O)CCC(=O)O)CN3C)n2)cc1` [CBK288852], the viability at 28.5 h, 10 µM was found to be 93.8%.

In the case of `CN1C[C@@H](NC(=O)COc2ccccc2)C[C@H]1c1nc(-c2ccncc2)no1` [CBK288855], the viability at 28.5 h, 10 µM was determined as 90.4%.

Regarding `CN1C[C@@H](NC(=O)Nc2ccccc2)C[C@H]1c1nc(-c2cccnc2)no1` [CBK288858], the viability at 28.5 h, 10 µM turned out to be 104%.

Consider `CN1C[C@@H](NS(C)(=O)=O)C[C@H]1c1nc(-c2ccc3ccccc3c2)no1` [CBK288859], for which the viability at 28.5 h, 10 µM is 106%.

Regarding `COc1ccc(-c2noc([C@@H]3C[C@H](NC(=O)c4ccc(F)cc4)CN3C)n2)cc1` [CBK288861], the viability at 28.5 h, 10 µM amounted to 118%.

In the case of `COc1ccc(NC(=O)N[C@H]2C[C@@H](c3nc(-c4ccc(OC)cc4)no3)N(C)C2)cc1` [CBK288862], the viability at 28.5 h, 10 µM is 102%.

With `COc1ccc(-c2noc([C@@H]3C[C@H](NS(=O)(=O)Cc4ccccc4)CN3C)n2)cc1` [CBK288863], the viability at 28.5 h, 10 µM was determined as 93.2%.

For the compound `CC(C)c1noc([C@@H]2C[C@H](NS(=O)(=O)c3ccc(F)cc3)CN2C)n1` [CBK288864], the viability at 28.5 h, 10 µM was determined as 114%.

As to `CN1C[C@@H](NC(=O)c2ccc(C#N)cc2)C[C@H]1c1nc(-c2ccc(F)cc2)no1` [CBK288865], the viability at 28.5 h, 10 µM was determined as 92.1%.

For the compound `O=C(NC[C@H]1C[C@@H]2CC[N@]1C[C@@H]2CN1CCN(c2ccccn2)CC1)c1ccco1` [CBK288867], the viability at 28.5 h, 10 µM was found to be 107%.

For the compound `O=C(O)c1ccc(CN2C[C@H](O)C[C@H]2c2nc(-c3ccccn3)no2)cc1` [CBK288869], the viability at 28.5 h, 10 µM is 90%.

With `O=C(O)c1ccc(CN2C[C@H](O)C[C@H]2c2nc(-c3ccc(F)cc3)no2)cc1` [CBK288870], the viability at 28.5 h, 10 µM was 112%.

As for `CN1C[C@@H](NS(=O)(=O)c2ccc(C#N)cc2)C[C@H]1c1nc(-c2ccncc2)no1` [CBK288871], the viability at 28.5 h, 10 µM is 86.9%.

For `Cc1noc([C@@H]2C[C@H](NC(=O)c3ccc(C#N)cc3)CN2C)n1` [CBK288872], the viability at 28.5 h, 10 µM is 97.6%.

`Cc1noc([C@@H]2C[C@H](NC(=O)Nc3cccc(C#N)c3)CN2C)n1` [CBK288873]: the viability at 28.5 h, 10 µM came to 104%.

Regarding `Cc1noc([C@@H]2C[C@H](NS(=O)(=O)c3ccc(C#N)cc3)CN2C)n1` [CBK288874], the viability at 28.5 h, 10 µM was 113%.

On to `CN1C[C@@H](NS(C)(=O)=O)C[C@H]1c1nc(-c2ccc3c(c2)OCO3)no1` [CBK288875], for which the viability at 28.5 h, 10 µM was 114%.

As to `CN1C[C@@H](NC(=O)Nc2ccccc2)C[C@H]1c1nc(-c2ccccc2)no1` [CBK288877], the viability at 28.5 h, 10 µM came out at 124%.

Regarding `CN1C[C@@H](NC(=O)NCc2ccccc2)C[C@H]1c1nc(-c2cncnc2)no1` [CBK288878], the viability at 28.5 h, 10 µM was found to be 108%.

Turning to `CC(=O)N1CCN(c2cc(-c3noc([C@@H]4CCCN4C4CCOCC4)n3)ccn2)CC1` [CBK288879], the viability at 28.5 h, 10 µM came to 88%.

With `COCCOc1ccc(-c2noc([C@@H]3CCCN3)n2)cn1` [CBK288883], the viability at 28.5 h, 10 µM was 97.4%.

With `CN1CCC[C@H]1c1nc(-c2ccnc(NS(C)(=O)=O)c2)no1` [CBK288884], the viability at 28.5 h, 10 µM came out at 86.8%.

For `CS(=O)(=O)Nc1cc(-c2noc([C@@H]3CCCN3Cc3ccncc3)n2)ccn1` [CBK288886], the viability at 28.5 h, 10 µM amounted to 83.5%.

Turning to `CS(=O)(=O)Nc1cc(-c2noc([C@@H]3CCCN3C3CCOCC3)n2)ccn1` [CBK288887], the viability at 28.5 h, 10 µM stood at 81.8%.

In the case of `CS(=O)(=O)Nc1cc(-c2noc([C@@H]3CCCN3C3CCC3)n2)ccn1` [CBK288889], the viability at 28.5 h, 10 µM is 112%.

With `c1ccc(CN2CCC[C@H]2c2nc(-c3ccc(-c4cncnc4)nc3)no2)cc1` [CBK288891], the viability at 28.5 h, 10 µM is 87.5%.

Consider `CC(C)N1CCC[C@H]1c1nc(-c2ccc(-c3cncnc3)nc2)no1` [CBK288892], for which the viability at 28.5 h, 10 µM came out at 115%.

In the case of `CN1CCC[C@H]1c1nc(-c2ccc(-n3ccnc3)nc2)no1` [CBK288893], the viability at 28.5 h, 10 µM came to 96.6%.

Consider `Fc1ccc(-c2noc([C@@H]3CCCN3Cc3ncc[nH]3)n2)nc1` [CBK288897], for which the viability at 28.5 h, 10 µM came out at 102%.

For the compound `COCc1cc(C[C@H]2CNCC[C@H]2CC(=O)N2CCCCC2)no1` [CBK288899], the viability at 28.5 h, 10 µM worked out at 109%.

Turning to `CN(C)c1ccc(-c2noc([C@@H]3CCCN3C)n2)cn1` [CBK288902], the viability at 28.5 h, 10 µM came to 104%.

For `CS(=O)(=O)NC[C@H]1O[C@@H](Cc2nc(-c3ccc(F)cc3)no2)[C@H](O)[C@@H]1O` [CBK288906], the viability at 28.5 h, 10 µM amounted to 95.3%.

Take `O=C(NC[C@H]1O[C@@H](CC(=O)N2CCCC2)[C@H](O)[C@@H]1O)c1ccccc1` [CBK288907]: the viability at 28.5 h, 10 µM was found to be 88.5%.

Regarding `O=C(C[C@@H]1O[C@H](CNS(=O)(=O)c2ccccc2)[C@@H](O)[C@H]1O)N1CCCC1` [CBK288909], the viability at 28.5 h, 10 µM came out at 108%.

As to `Cc1ccc(C(=O)NC[C@H]2O[C@@H](CC(=O)N3CCCC3)[C@H](O)[C@@H]2O)cc1` [CBK288912], the viability at 28.5 h, 10 µM was found to be 98.9%.

Take `O=C(C[C@@H]1O[C@H](CNCc2cccc(Cl)c2)[C@@H](O)[C@H]1O)N1CCCC1` [CBK288914]: the viability at 28.5 h, 10 µM was 95%.

For the compound `O=C(NC[C@H]1O[C@@H](CC(=O)N2CCc3ccccc32)[C@H](O)[C@@H]1O)C1CC1` [CBK288915], the viability at 28.5 h, 10 µM came to 105%.

`O=C(C[C@@H]1O[C@H](CNS(=O)(=O)c2ccccc2)[C@@H](O)[C@H]1O)N1CCc2ccccc21` [CBK288916]: the viability at 28.5 h, 10 µM is 91.2%.

As to `Cc1ccc(S(=O)(=O)NC[C@H]2O[C@@H](CC(=O)N3CCc4ccccc43)[C@H](O)[C@@H]2O)cc1` [CBK288917], the viability at 28.5 h, 10 µM is 91.3%.

For `O=C(NC[C@H]1O[C@@H](CC(=O)N2CCN(c3ccccc3)CC2)[C@H](O)[C@@H]1O)c1ccco1` [CBK288919], the viability at 28.5 h, 10 µM is 97.9%.

As for `O=C(NC[C@H]1O[C@@H](CC(=O)N2CCN(c3ccccn3)CC2)[C@H](O)[C@@H]1O)c1ccco1` [CBK288923], the viability at 28.5 h, 10 µM worked out at 102%.

In the case of `Cc1ccc(C(=O)NC[C@H]2O[C@@H](CC(=O)N3CCOCC3)[C@H](O)[C@@H]2O)cc1` [CBK288925], the viability at 28.5 h, 10 µM came out at 85.5%.

Regarding `CC1CCN(C(=O)C[C@@H]2O[C@H](CNC(=O)C3CC3)[C@@H](O)[C@H]2O)CC1` [CBK288926], the viability at 28.5 h, 10 µM amounted to 92%.

The term viability denotes a read-out of living cells in per cent, often relative to untreated cells.
